Results as given in patent publication US6861070B1, “Medicinal compositions for treating evacuatory insufficiency” (Yamanouchi Pharmaceutical Co., Ltd., priority 1998, dated 2005).
Structures can show the parent of a compound that is named as a salt.

Tested on: patients diagnosed to be voiding dysfunction associated with neurogenic bladder
Test: Clinical test to patients of voiding dysfunction associated with neurogenic bladder
Type: in vivo
Procedure: Test Example 1. Clinical Test to Patients of Voiding Dysfunction Associated with Neurogenic Bladder. Clinical test was carried out under the following conditions to the causes of voiding dysfunction associated with neurogenic bladder. Patients: Sixty patients diagnosed to be voiding dysfunction associated with neurogenic bladder (excluding the cases where the cause was peripheral diseases). Used drug and method of administration: Capsule preparation containing 0.2 mg of tamsulosin hydrochloride or placebo capsule was used and two capsules were orally administered after breakfast (once daily) for four weeks. […] Approximate safety was evaluated as no problem, little problems, some problems and problems according to the presence/absence and degree of side effect, change of blood pressure and pulse rate, and abnormal change in clinical date. Impression by the patient was judged to be much improvement, improvement, some improvement, no change, some worsening, worsening and much worsening. Finally, degree of improvement as a whole, approximate safety and impression by patient were taken into consideration and the final judgement for the Usefulness wan judged to be any of the […]—very useful, useful, somewhat useful and not preferable.

[1] = compared with placebo group, two 0.2 mg capsules orally once daily, four weeks
[2] = share of patients (12/20), two 0.2 mg capsules orally once daily, four weeks
[3] = two 0.2 mg capsules orally once daily after breakfast, four weeks, n = 16
[4] = two 0.2 mg capsules orally once daily after breakfast, four weeks, n = 23

## CCOc1ccccc1OCCN[C@H](C)Cc1ccc(OC)c(S(N)(=O)=O)c1 [Tamsulosin Hydrochloride, (R)(−)-5-{2-{[2-(o-ethoxyphenoxy)ethyl}amino]propyl}-2-methoxybenzene-sulfonamide]
[1]
  Approximate safety (side effect, blood pressure, pulse rate, clinical data): no significant difference
  Impression by patient: no significant difference
Impression by the patients further taken into consideration
  Usefulness as a therapeutic agent (final judgement, in words): useful as a therapeutic agent
Patients suffering from voiding dysfunction associated with neurogenic bladder
  Improvement of subjective symptom and objective observation and improvement as a whole (in words): significant improvement
Share of patients (10/23), two 0.2 mg capsules orally once daily, four weeks
  Degree of Improvement in Subjective Symptoms, ≧Medium Improvement: 43.5%
[2]
  Degree of Improvement as a Whole, ≧Medium Improvement: 60.0%
  Degree of Improvement in Objective Observation, ≧Medium Improvement: 80.0%
Share of patients (12/23), two 0.2 mg capsules orally once daily, four weeks
  Usefulness, ≧Useful: 52.2%
[3]
  Average Urinary Flow (Changing Amt): 1.2 ± 1.66 mL/s
  Maximum Urinary Flow (Changing Amt): 2.5 ± 3.01 mL/s
  Residual Urine Rate (Changing Amt): −13 ± 20.0%
[4]
  Residual Urine Amount (Changing Amt): -18 ± 80.1 mL
  Total Score (Changing Rate) of subjective symptoms (1)-(8): −31 ± 34.2%
